Measured values taken from US12448395B2 (BRISTOL-MYERS SQUIBB COMPANY, priority 2019, dated 2025).

Target: T1, human TLR9 (Homo sapiens, UniProt Q9NR96)
T1 sequence (Q9NR96 26-1032): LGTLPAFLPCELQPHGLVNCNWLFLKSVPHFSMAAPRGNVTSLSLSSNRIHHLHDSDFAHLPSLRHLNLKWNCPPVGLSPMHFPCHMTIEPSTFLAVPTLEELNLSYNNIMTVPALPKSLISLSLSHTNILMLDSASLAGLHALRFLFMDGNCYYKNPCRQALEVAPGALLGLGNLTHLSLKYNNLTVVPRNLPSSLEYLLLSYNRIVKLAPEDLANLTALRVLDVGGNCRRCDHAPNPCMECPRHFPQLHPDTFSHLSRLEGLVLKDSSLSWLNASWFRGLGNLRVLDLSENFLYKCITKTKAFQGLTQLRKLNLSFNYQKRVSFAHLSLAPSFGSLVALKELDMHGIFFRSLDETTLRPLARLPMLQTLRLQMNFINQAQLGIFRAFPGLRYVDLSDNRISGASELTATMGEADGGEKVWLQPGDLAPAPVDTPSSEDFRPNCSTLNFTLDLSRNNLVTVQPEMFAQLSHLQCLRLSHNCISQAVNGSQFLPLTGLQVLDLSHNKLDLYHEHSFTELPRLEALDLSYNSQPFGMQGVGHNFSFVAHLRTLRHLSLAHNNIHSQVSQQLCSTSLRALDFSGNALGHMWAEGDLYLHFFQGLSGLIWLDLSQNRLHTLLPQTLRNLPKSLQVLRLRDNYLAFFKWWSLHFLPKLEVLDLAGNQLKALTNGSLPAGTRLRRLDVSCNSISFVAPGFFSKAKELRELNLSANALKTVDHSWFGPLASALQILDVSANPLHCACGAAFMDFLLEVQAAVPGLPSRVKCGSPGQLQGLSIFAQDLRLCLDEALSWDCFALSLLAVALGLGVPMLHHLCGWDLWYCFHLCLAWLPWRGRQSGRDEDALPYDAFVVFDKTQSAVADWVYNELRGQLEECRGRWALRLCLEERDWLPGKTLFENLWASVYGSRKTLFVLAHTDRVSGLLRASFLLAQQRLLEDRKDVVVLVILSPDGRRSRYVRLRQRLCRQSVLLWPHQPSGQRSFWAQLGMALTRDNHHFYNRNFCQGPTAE
Test: TLR9 inhibition reporter assay (HEK-Blue SEAP, ODN2006 stimulation)
Format: cell-based
Conditions: HEK-Blue cells overexpressing human TLR9, ODN2006 5 nM
Method: TLR7/8/9 Inhibition Reporter Assays
HEK-Blue™-cells (Invivogen) overexpressing human TLR7, TLR8 or TLR9 receptors were used for screening inhibitors of these receptors using an inducible SEAP (secreted embryonic alkaline phosphatase) reporter gene under the control of the IFN-β minimal promoter fused to five NF-κB and AP-1-binding sites. Briefly, cells are seeded into Greiner 384 well plates (15000 cells per well for TLR7, 20,000 for TLR8 and 25,000 for TLR9) and then treated with test compounds in DMSO to yield a final dose response concentration range of 0.05 nM-50 μM. After a 30 minute compound pre-treatment at room temperature, the cells are then stimulated with a TLR7 ligand (gardiquimod at a final concentration of 7.5 μM), TLR8 ligand (R848 at a final concentration of 15.9 μM) or TLR9 ligand (ODN2006 at a final concentration of 5 nM) to activate NF-κB and AP-1 which induce the production of SEAP. After a 22 hour incubation at 37° C., 5% CO2, SEAP levels are determined with the addition of HEK-Blue™ Detection reagent (Invivogen), a cell culture medium that allows for detection of SEAP, according to manufacturer's specifications. The percent inhibition is determined as the % reduction in the HEK-Blue signal present in wells treated with agonist plus DMSO alone compared to wells treated with a known inhibitor.

IC50 [µM] | SMILES
> 50 | CNC(=O)CN1CCN(c2nc3c(C(C)C)c(-c4cn5ncnc5c(C)c4C)[nH]c3s2)CC1 [Example 284, 2-(4-(5-(7,8-dimethyl-[1,2,4]triazolo[1,5-a]pyridin-6-yl)-6-isopropyl-4H-pyrrolo[3,2-d]thiazol-2-yl)piperazin-1-yl)-N-methylacetamide]
> 50 | Cc1c(-c2[nH]c3sc(C4CCN(CCS(C)(=O)=O)CC4)nc3c2C(C)C)cn2ncnc2c1C [Example 55, 5-(7,8-dimethyl-[1,2,4]triazolo[1,5-a]pyridin-6-yl)-6-isopropyl-2-(1-(2-(methylsulfonyl)ethyl)piperidin-4-yl)-4H-pyrrolo[3,2-d]thiazole]
> 50 | Cc1cc(-c2[nH]c3sc(C(=O)N4CCCC4)nc3c2C(C)C)cn2ncnc12 [Example 393, (6-isopropyl-5-(8-methyl-[1,2,4]triazolo[1,5-a]pyridin-6-yl)-4H-pyrrolo[3,2-d]thiazol-2-yl)(pyrrolidin-1-yl) methanone]
> 50 | Cc1c(-c2[nH]c3sc(C4CCN(CC(=O)N(C)C)CC4)nc3c2C(C)C)cn(C)c(=O)c1C [Example 62, 2-(4-(6-isopropyl-5-(1,4,5-trimethyl-6-oxo-1,6-dihydropyridin-3-yl)-4H-pyrrolo[3,2-d]thiazol-2-yl)piperidin-1-yl)-N,N-dimethylacetamide]
> 50 | CNC(=O)CN1CCN(c2nc3c(C(C)C)c(-c4cn5ncnc5c(C)c4C)[nH]c3s2)[C@H](C)C1 [Example 315, (R)-2-(4-(5-(7,8-dimethyl-[1,2,4]triazolo[1,5-a]pyridin-6-yl)-6-isopropyl-4H-pyrrolo[3,2-d]thiazol-2-yl)-3-methylpiperazin-1-yl)-N-methylacetamide]
> 50 | Cc1cc(-c2[nH]c3sc(C(=O)N4CCOCC4)nc3c2C(C)C)cn2ncnc12 [Example 398, (6-isopropyl-5-(8-methyl-[1,2,4]triazolo[1,5-a]pyridin-6-yl)-4H-pyrrolo[3,2-d]thiazol-2-yl)(morpholino)methanone]
> 50 | Cc1c(-c2[nH]c3sc(N4CC5(CN(CCS(C)(=O)=O)C5)C4)nc3c2C(C)C)cn(C)c(=O)c1C [Example 305, 5-(6-isopropyl-2-(6-(2-(methylsulfonyl)ethyl)-2,6-diazaspiro[3.3]heptan-2-yl)-4H-pyrrolo[3,2-d]thiazol-5-yl)-1,3,4-trimethylpyridin-2 (1H)-one]
> 50 | Cc1c(-c2[nH]c3sc(N4CCN(CC(C)(C)O)C[C@@H]4C)nc3c2C(C)C)cn2ncnc2c1C [Example 345, (S)-1-(4-(5-(7,8-dimethyl-[1,2,4]triazolo[1,5-a]pyridin-6-yl)-6-isopropyl-4H-pyrrolo[3,2-d]thiazol-2-yl)-3-methylpiperazin-1-yl)-2-methylpropan-2-ol]
> 50 | Cc1c(-c2[nH]c3sc(N4CCN(CC(=O)N(C)C)C[C@H]4C)nc3c2C(C)C)cn2ncnc2c1C [Example 312, (R)-2-(4-(5-(7,8-dimethyl-[1,2,4]triazolo[1,5-a]pyridin-6-yl)-6-isopropyl-4H-pyrrolo[3,2-d]thiazol-2-yl)-3-methylpiperazin-1-yl)-N,N-dimethylacetamide]
> 50 | Cc1c(-c2[nH]c3sc(N4CCN(CC(=O)N(C)C)CC4)nc3c2C(C)C)cn2ncnc2c1C [Example 283, 2-(4-(5-(7,8-dimethyl-[1,2,4]triazolo[1,5-a]pyridin-6-yl)-6-isopropyl-4H-pyrrolo[3,2-d]thiazol-2-yl)piperazin-1-yl)-N,N-dimethylacetamide]
> 50 | CC(C)c1c(-c2cn(C)c3ncccc23)[nH]c2sc(C3CCN(C4COC4)CC3)nc12 [Example 34, 6-isopropyl-5-(1-methyl-1H-pyrrolo[2,3-b]pyridin-3-yl)-2-(1-(oxetan-3-yl)piperidin-4-yl)-4H-pyrrolo[3,2-d]thiazole]
> 50 | CC(=O)N1CCC(c2nc3c(C(C)C)c(-c4cn5ncnc5c(C)c4C)[nH]c3s2)CC1 [Example 59, 1-(4-(5-(7,8-dimethyl-[1,2,4]triazolo[1,5-a]pyridin-6-yl)-6-isopropyl-4H-pyrrolo[3,2-d]thiazol-2-yl)piperidin-1-yl)ethan-1-one]
> 50 | Cc1cc(-c2[nH]c3sc(C(=O)NC4COC4)nc3c2C(C)C)cn2ncnc12 [Example 397, 6-isopropyl-5-(8-methyl-[1,2,4]triazolo[1,5-a]pyridin-6-yl)-N-(oxetan-3-yl)-4H-pyrrolo[3,2-d]thiazole-2-carboxamide]
> 50 | CC(C)c1c(-c2cn(C)c3ncccc23)[nH]c2sc(C3CCN(C(=O)CN(C)C)CC3)nc12 [Example 32, 2-(dimethylamino)-1-(4-(6-isopropyl-5-(1-methyl-1H-pyrrolo[2,3-b]pyridin-3-yl)-4H-pyrrolo[3,2-d]thiazol-2-yl)piperidin-1-yl)ethan-1-one]
> 50 | Cc1c(-c2[nH]c3sc(C4CCN(CCS(C)(=O)=O)CC4)nc3c2C(C)C)cn(C)c(=O)c1C [Example 61, 5-(6-isopropyl-2-(1-(2-(methylsulfonyl)ethyl)piperidin-4-yl)-4H-pyrrolo[3,2-d]thiazol-5-yl)-1,3,4-trimethylpyridin-2 (1H)-one]
> 50 | Cc1c(-c2[nH]c3sc(C(=O)N4CCNC(=O)C4)nc3c2C(C)C)cn2ncnc2c1C [Example 378, 4-(5-(7,8-dimethyl-[1,2,4]triazolo[1,5-a]pyridin-6-yl)-6-isopropyl-4H-pyrrolo[3,2-d]thiazole-2-carbonyl)piperazin-2-one]
> 50 | Cc1c(-c2[nH]c3sc(C4CCN(CC(N)=O)CC4)nc3c2C(C)C)cn(C)c(=O)c1C [Example 64, 2-(4-(6-isopropyl-5-(1,4,5-trimethyl-6-oxo-1,6-dihydropyridin-3-yl)-4H-pyrrolo[3,2-d]thiazol-2-yl)piperidin-1-yl)acetamide]
> 50 | Cc1c(-c2[nH]c3sc(N4CCN(C5COC5)CC4)nc3c2C(C)C)cn2ncnc2c1C [Example 286, 5-(7,8-dimethyl-[1,2,4]triazolo[1,5-a]pyridin-6-yl)-6-isopropyl-2-(4-(oxetan-3-yl)piperazin-1-yl)-4H-pyrrolo[3,2-d]thiazole]
> 50 | Cc1c(-c2[nH]c3sc(CN4CC5(CCOCC5)C4)nc3c2C(C)C)cn2ncnc2c1C [Example 404, 2-((5-(7,8-dimethyl-[1,2,4]triazolo[1,5-a]pyridin-6-yl)-6-isopropyl-4H-pyrrolo[3,2-d]thiazol-2-yl)methyl)-7-oxa-2-azaspiro[3.5]nonane]
> 50 | Cc1c(-c2[nH]c3sc(N4CCN(CC(N)=O)CC4)nc3c2C(C)C)cn2ncnc2c1C [Example 285, 2-(4-(5-(7,8-dimethyl-[1,2,4]triazolo[1,5-a]pyridin-6-yl)-6-isopropyl-4H-pyrrolo[3,2-d]thiazol-2-yl)piperazin-1-yl)acetamide]
> 50 | Cc1c(-c2[nH]c3sc(N4CCN(CC(=O)N(C)C)C[C@@H]4C)nc3c2C(C)C)cn2ncnc2c1C [Example 343, (S)-2-(4-(5-(7,8-dimethyl-[1,2,4]triazolo[1,5-a]pyridin-6-yl)-6-isopropyl-4H-pyrrolo[3,2-d]thiazol-2-yl)-3-methylpiperazin-1-yl)-N,N-dimethylacetamide]
> 50 | Cc1cc(-c2[nH]c3sc(C(=O)NCC4(S(C)(=O)=O)CC4)nc3c2C(C)C)cn2ncnc12 [Example 399, 6-isopropyl-5-(8-methyl-[1,2,4]triazolo[1,5-a]pyridin-6-yl)-N-((1-(methylsulfonyl)cyclopropyl)methyl)-4H-pyrrolo[3,2-d]thiazole-2-carboxamide]
> 50 | Cc1c(-c2[nH]c3sc(C4CCN(C5COC5)CC4)nc3c2C(C)C)cn(C)c(=O)c1C [Example 60, 5-(6-isopropyl-2-(1-(oxetan-3-yl)piperidin-4-yl)-4H-pyrrolo[3,2-d]thiazol-5-yl)-1,3,4-trimethylpyridin-2 (1H)-one]
